Legend:
Type in all cases: physicochemical
[1] = Dynamic vapor sorption (hygroscopicity); conditions: for DVS gain: 0–90% RH
From the text: Dynamic Vapor Sorption (Allentown, Pa.) was used to measure the hygroscopicity of the anhydrate and monohydrate of the invention (see FIGS. 6 and 7). The step conditions were three hours each at 0%, 30%, 52.5%, 75% and 90% RH, two full cycles.

[2] = Solid-state stability of crystal forms (XRPD, TGA); conditions: for Long term crystal form stability (XRPD, TGA): three months (monohydrate also 40° C. without humidity control)
Experimental: […] At room temperature, humidity was maintained at 0% RH. Humidity was not controlled for the higher temperatures.
The samples were analyzed by XRPD and TGA.
(§1) Non-micronized samples of monohydrate and anhydrate were stored at 40° C./75% RH for three months. The monohydrate was also stored at 40° C. without humidity control. During the three months, the samples were checked after two weeks, one month, two months, and three months.

[3] = Chemical stability on storage (HPLC); conditions: non-micronized, 40° C./75% RH, three months
Experimental: as §1

[4] = Water solubility of the two crystal forms

| Structure (SMILES) | Hygroscopicity (DVS), in words [1] | DVS gain [1] | Crystal form stability (XRPD) ([2]; micronized, 25° C./60% RH, three months) | Crystal form stability (XRPD) ([2]; micronized, 40° C./75% RH, one month) | Crystal form stability (XRPD) ([2]; non-micronized, 40° C./75% RH) | Long term crystal form stability (XRPD, TGA) ([2]; non-micronized, 40° C./75% RH) | Long term chemical stability (HPLC) [3] | Water solubility compared between forms, in words [4] | Medium term stability (XRPD, TGA) ([2]; 56° C., humidity not controlled, one week) | Medium term stability (XRPD, TGA) ([2]; 70° C., 1 day) | Medium term stability (XRPD, TGA) ([2]; 70° C., 4 days) | Medium term stability (XRPD, TGA) ([2]; 70° C., 7 days) | Short term stability (XRPD) ([2]; 70° C., one hour) | Short term stability (XRPD) ([2]; 90° C., one half hour) | Short term stability (XRPD) ([2]; 90° C., one hour) | Medium term stability (XRPD, TGA) ([2]; room temperature, 0% RH, one week) |
| --- | --- | --- | --- | --- | --- | --- | --- | --- | --- | --- | --- | --- | --- | --- | --- | --- |
| C=Cc1cc(O)cc2nc(-c3ccc(O)c(F)c3)oc12 [Anhydrate, 2-(3-fluoro-4-hydroxyphenyl)-7-vinyl-1,3-benzoxazol-5-ol] | largely non-hygroscopic | 0.2% gain (0–90% RH) | did not transform to the monohydrate | did partially transform to the monohydrate | did not show any obvious transformation | did not transform | chemically stable |  |  |  |  |  |  |  |  |  |
| C=Cc1cc(O)cc2nc(-c3ccc(O)c(F)c3)oc12 [Monohydrate, 2-(3-fluoro-4-hydroxyphenyl)-7-vinyl-1,3-benzoxazol-5-ol] | largely non-hygroscopic | 0.1% gain (0–90% RH) |  |  |  | did not transform | chemically stable | significantly lower solubility than the anhydrate | no obvious dehydration | no obvious hydration | partially dehydrated | mostly dehydrated | stable | partially dehydrated | completely dehydrated | no obvious dehydration |

Reference: US20070208069A1, “PHARMACEUTICAL FORMULATIONS OF AN ANHYDROUS CRYSTAL FORM OF 2-(3-FLUORO-4-HYDROXYPHENYL)-7-VINYL-1,3-BENZOXAZOL-5-OL” (Wyeth, priority 2006, published 2007)
